Counter-ions that a name gives are not always drawn.
| Structure (SMILES) | melting point [°C] |
| --- | --- |
| COc1cc2c(cc1Br)-c1c(-c3cccs3)nc(C(=O)N(C)C(C)(C)C)n1CC2 [Example 1j, 9-Bromo-8-methoxy-1-thiophen-2-yl-5,6-dihydro-imidazo[5,1-a]isoquinoline-3-carboxylic acid tert-butyl-methyl-amide] | 160 to 161 |
| CCc1nnc(NC(=O)c2cc3c(cc2OC)CCn2c(C(=O)N(C)C(C)(C)C)nc(-c4cccs4)c2-3)s1 [Example 4, 8-Methoxy-1-thiophen-2-yl-5,6-dihydro-imidazo[5,1-a]isoquinoline-3,9-dicarboxylic acid 3-(tert-butyl-methyl-amide) 9-[(5-ethyl-[1,3,4]thiadiazol-2-yl)-amide]] | 238 to 240 |
| CCOc1ccc2c(c1)CCn1c(C(=O)N(C)C(C)(C)C)nc(-c3cccs3)c1-2 [Example 40c, 8-Ethoxy-1-thiophen-2-yl-5,6-dihydro-imidazo[5,1-a]isoquinoline-3-carboxylic acid tert-butyl-methyl-amide] | 111 to 112 |
| COc1cc2c(cc1CC(C)C)-c1c(-c3cncs3)nc(C(=O)N(C)C(C)(C)C)n1CC2 [Example 38, 9-Isobutyl-8-methoxy-1-thiazol-5-yl-5,6-dihydro-imidazo[5,1-a]isoquinoline-3-carboxylic acid tert-butyl-methyl-amide] | 144 to 145 |
| COc1cc2c(cc1-c1ccc3c(c1)OCO3)-c1c(-c3cccs3)nc(C(=O)N(C)C(C)(C)C)n1CC2 [Example 2r, 9-Benzo[1,3]dioxol-5-yl-8-methoxy-1-thiophen-2-yl-5,6-dihydro-imidazo[5,1-a]isoquinoline-3-carboxylic acid tert-butyl-methyl-amide] | 162 |
| COc1cc2c(cc1NC(=O)c1cccnc1)-c1c(-c3cccs3)nc(C(=O)N(C)C(C)(C)C)n1CC2 [Example 9, 8-Methoxy-9-[(pyridine-3-carbonyl)-amino]-1-thiophen-2-yl-5,6-dihydro-imidazo[5,1-a]isoquinoline-3-carboxylic acid tert-butyl-methyl-amide] | 159 to 161 |
| COc1ccccc1-c1cc2c(cc1OC)CCn1c(C(=O)N(C)C(C)(C)C)nc(-c3cccs3)c1-2 [Example 2q, 8-Methoxy-9-(2-methoxy-phenyl)-1-thiophen-2-yl-5,6-dihydro-imidazo[5,1-a]isoquinoline-3-carboxylic acid tert-butyl-methyl-amide] | 188 to 189 |
| COc1cc2c(cc1OC(C)C)-c1c(-c3cncs3)nc(C(=O)N(C)C(C)(C)C)n1CC2 [Example 47e, 9-Isopropoxy-8-methoxy-1-thiazol-5-yl-5,6-dihydro-imidazo[5,1-a]isoquinoline-3-carboxylic acid tert-butyl-methyl-amide] | 112 to 114 |
| C=CCN1CCN(C(=O)c2nc(-c3cccs3)c3n2CCc2cc(OC)c(OC(C)C)cc2-3)CCC1=O (as salt: salt) [Example 28, 4-Allyl-1-(9-isopropoxy-8-methoxy-1-thiophen-2-yl-5,6-dihydro-imidazo[5,1-a]isoquinoline-3-carbonyl)-[1,4]diazepan-5-one] | 115 to 117 |
| COc1cc2ccn3c(C(=O)N(C)C(C)(C)C)nc(-c4cccs4)c3c2cc1C=C(C)C [Example 16e, 8-Methoxy-9-(2-methyl-propenyl)-1-thiophen-2-yl-imidazo[5,1-a]isoquinoline-3-carboxylic acid tert-butyl-methyl-amide] | 121 to 123 |
| CCN(C(=O)c1nc(-c2cccs2)c2n1CCc1cc(OC)c(OCCO)cc1-2)C(C)(C)C [Example 34b, 9-(2-Hydroxy-ethoxy)-8-methoxy-1-thiophen-2-yl-5,6-dihydro-imidazo[5,1-a]isoquinoline-3-carboxylic acid tert-butyl-ethyl-amide] | 178 to 186 |
| COc1cc2c(cc1CCC(C)(C)O)-c1c(-c3cccs3)nc(C(=O)N(C)C(C)(C)C)n1CC2 [Example 41c, 9-(3-Hydroxy-3-methyl-butyl)-8-methoxy-1-thiophen-2-yl-5,6-dihydro-imidazo[5,1-a]isoquinoline-3-carboxylic acid tert-butyl-methyl-amide] | 140 to 143 |
| COc1cc2c(cc1NC(=O)c1csnn1)-c1c(-c3cccs3)nc(C(=O)N(C)C(C)(C)C)n1CC2 [Example 12, 8-Methoxy-9[([1,2,3]thiadiazole-4-carbonyl)-amino]-1-thiophen-2-yl-5,6-dihydro-imidazo[5,1-a]isoquinoline-3-carboxylic acid tert-butyl-methyl-amide] | 210 to 212 |
| COc1cc2c(cc1C(=O)Nc1nncs1)-c1c(-c3cccs3)nc(C(=O)N(C)C(C)(C)C)n1CC2 [Example 3e, 8-Methoxy-1-thiophen-2-yl-5,6-dihydro-imidazo[5,1-a]isoquinoline-3,9-dicarboxylic acid 3-(tert-butyl-methyl-amide) 9-[1,3,4]thiadiazol-2-ylamide] | 154 to 156 |
| COc1cc2c(cc1NC(=O)c1nccs1)-c1c(-c3cccs3)nc(C(=O)N(C)C(C)(C)C)n1CC2 [Example 10, 8-Methoxy-9-[(thiazole-2-carbonyl)-amino]-1-thiophen-2-yl-5,6-dihydro-imidazo[5,1-a]isoquinoline-3-carboxylic acid tert-butyl-methyl-amide] | 185 to 186 |
| COc1cc2c(cc1C=C(F)F)-c1c(-c3cccs3)nc(C(=O)N(C)C(C)(C)C)n1CC2 [Example 39, 9-(2,2-Difluoro-vinyl)-8-methoxy-1-thiophen-2-yl-5,6-dihydro-imidazo[5,1-a]isoquinoline-3-carboxylic acid tert-butyl-methyl-amide] | 154 to 155 |
| COc1cc2c(cc1-c1cccc(N(C)C)c1)-c1c(-c3cccs3)nc(C(=O)N(C)C(C)(C)C)n1CC2 [Example 2l, 9-(3-Dimethylamino-phenyl)-8-methoxy-1-thiophen-2-yl-5,6-dihydro-imidazo[5,1-a]isoquinoline-3-carboxylic acid tert-butyl-methyl-amide] | 149 |
| COc1cc2ccn3c(C(=O)N(C)C(C)(C)C)nc(-c4cccs4)c3c2cc1-c1cnn(C)c1 [Example 17b, 8-Methoxy-9-(1-methyl-1H-pyrazol-4-yl)-1-thiophen-2-yl-imidazo[5,1-a]isoquinoline-3-carboxylic acid tert-butyl-methyl-amide] | 239 to 241 |
| COc1cc2c(cc1-c1cccc(N3CCOCC3)c1)-c1c(-c3cccs3)nc(C(=O)N(C)C(C)(C)C)n1CC2 [Example 2h, 8-Methoxy-9-(3-morpholin-4-yl-phenyl)-1-thiophen-2-yl-5,6-dihydro-imidazo[5,1-a]isoquinoline-3-carboxylic acid tert-butyl-methyl-amide] | 85 to 90 |
| COc1cc2c(c(F)c1CC(C)C)-c1c(-c3cccs3)nc(C(=O)N(C)C(C)(C)C)n1CC2 [Example 48j, 10-Fluoro-9-isobutyl-8-methoxy-1-thiophen-2-yl-5,6-dihydro-imidazo[5,1-a]isoquinoline-3-carboxylic acid tert-butyl-methyl-amide] | 141 to 142 |
| COc1cc2c(cc1NC(=O)c1cscn1)-c1c(-c3cccs3)nc(C(=O)N(C)C(C)(C)C)n1CC2 [Example 11, 8-Methoxy-9-[(thiazole-4-carbonyl)-amino]-1-thiophen-2-yl-5,6-dihydro-imidazo[5,1-a]isoquinoline-3-carboxylic acid tert-butyl-methyl-amide] | 240 to 242 |
| COc1cc2c(cc1-c1cccc(NC(C)=O)c1)-c1c(-c3cccs3)nc(C(=O)N(C)C(C)(C)C)n1CC2 [Example 2f, 9-(3-Acetylamino-phenyl)-8-methoxy-1-thiophen-2-yl-5,6-dihydro-imidazo[5,1-a]isoquinoline-3-carboxylic acid tert-butyl-methyl-amide] | 123 |
| COc1cc2c(cc1-c1cccc(-n3cccn3)c1)-c1c(-c3cccs3)nc(C(=O)N(C)C(C)(C)C)n1CC2 [Example 2g, 8-Methoxy-9-(3-pyrazol-1-yl-phenyl)-1-thiophen-2-yl-5,6-dihydro-imidazo[5,1-a]isoquinoline-3-carboxylic acid tert-butyl-methyl-amide] | 180 |
| COc1cc2c(cc1-c1ccccn1)-c1c(-c3cccs3)nc(C(=O)N(C)C(C)(C)C)n1CC2 [Example 2b, 8-Methoxy-9-pyridin-2-yl-1-thiophen-2-yl-5,6-dihydro-imidazo[5,1-a]isoquinoline-3-carboxylic acid tert-butyl-methyl-amide] | 176 to 177 |
| CC(C)Cc1ccc2c(c1)-c1c(-c3cccs3)nc(C(=O)N(C)C(C)(C)C)n1CC2 [Example 20b, 9-Isobutyl-1-thiophen-2-yl-5,6-dihydro-imidazo[5,1-a]isoquinoline-3-carboxylic acid tert-butyl-methyl-amide] | 126 |
| COc1cc2c(cc1-c1c(C)noc1C)-c1c(-c3cccs3)nc(C(=O)N(C)C(C)(C)C)n1CC2 [Example 2m, 9-(3,5-Dimethyl-isoxazol-4-yl)-8-methoxy-1-thiophen-2-yl-5,6-dihydro-imidazo[5,1-a]isoquinoline-3-carboxylic acid tert-butyl-methyl-amide] | 183 to 184 |
| COc1cc2c(cc1-c1cccc(N)c1)-c1c(-c3cccs3)nc(C(=O)N(C)C(C)(C)C)n1CC2 [Example 2k, 9-(3-Amino-phenyl)-8-methoxy-1-thiophen-2-yl-5,6-dihydro-imidazo[5,1-a]isoquinoline-3-carboxylic acid tert-butyl-methyl-amide] | 213 |
| COc1cc2c(cc1C(=O)NC(C)C)-c1c(-c3cccs3)nc(C(=O)N(C)C(C)(C)C)n1CC2 [Example 5, 8-Methoxy-1-thiophen-2-yl-5,6-dihydro-imidazo[5,1-a]isoquinoline-3,9-dicarboxylic acid 3-(tert-butyl-methyl-amide) 9-isopropylamide] | 197 to 198 |
| COc1cc2c(cc1-c1cccc(C(=O)N(C)C)c1)-c1c(-c3cccs3)nc(C(=O)N(C)C(C)(C)C)n1CC2 [Example 2n, 9-(3-Dimethylcarbamoyl-phenyl)-8-methoxy-1-thiophen-2-yl-5,6-dihydro-imidazo[5,1-a]iso-quinoline-3-carboxylic acid tert-butyl-methyl-amide] | 151 |

From patent publication US8071587B2, “(Dihydro)imidazoiso[5,1-A]quinolines” (N. V. Organon, priority 2009, dated 2011)
